Experimental data reported in patent US12194294B2, “Oral drug delivery devices and methods using iontophoresis” (The Regents of the University of California, priority 2019, dated 2025).
Entries after “also recorded” stand apart in the source; their conditions may differ. Read-outs that look alike come from different tables or passages of the source.

Columns and labels:
Caco-2 cells [1] = assay: TEER measurement of tight junction integrity in Caco-2 monolayers during FITC-insulin transport study; format: cell-based, human; settings: for TEER decrease: within 15 min
Protocol: Transport experiments were carried out in triplicates and at least 3 transwells were used per trial for each group. Before the start of the experiment, the existing medium in the transwell was replaced with phenol red, FBS and P/S free DMEM in both the apical (200 μl) and basolateral side (600 μl) and the cells were incubated for 30 min. […] This was performed at 0.25, 0.5, 1, 2, 3 and 5 h. A 50 μA electric current was applied to the cells during the first hour of the study for a period of 10 min, followed by a 10 min recovery period and this was repeated another two times. At the end of 1 h (total 30 min iontophoresis), the transwell plates were kept inside an incubator at 37° C., 5% CO2 and only taken out to remove 100 μl aliquots from the basolateral side followed by replacement with same volume fresh medium at the aforementioned time periods. […] TEER was measured at every time point when aliquots were withdrawn from the transwells.

non-diabetic rats = assay: In vivo intestinal iontophoresis using insulin mucoadhesive patches: blood glucose; parameters: species or system rat
Protocol: Insulin mucoadhesive patches were prepared as described in Banerjee, et al., “Intestinal Mucoadhesive Devices for Oral Delivery of Insulin,” Bioeng. Transl. Med. 1, 338-346 (2016). […] About 110 mg of the mixture was pressed at 3-ton pressure using a hydraulic press into a patch. The patches were then cut into 5×3 mm (length×breadth) sized rectangular smaller patches. One side of the patch was completely covered with aluminum foil using minimal amount of super glue placed at one corner of the foil. Wires with a small section of their protective insulation removed were then stuck on the aluminum foil using super glue. Care was taken not to cover the entire wire placed over the foil with super glue. The exposed wire sticking on to the patches were then taped with an electrical insulating tape to prevent any loss of current in vivo through exposed wire.
Intestinal iontophoresis was carried out using a 6 V battery connected to the intestine. A potentiometer and an ammeter were used in the electrical circuit to accurately control and measure the electric current. Given that the identified safe threshold for iontophoresis is 0.5 mA/cm^2, the electrical parameters were selected in order to perform the studies using a safe current density of 0.33 mA/cm^2 (Singh, et. al., “Transdermal drug delivery by passive diffusion and iontophoresis: a review,” Med Res Rev., 13(5):569-621 (1993)). For the experiment, the rats were fasted overnight but given free access to water. Prior to the start of intestinal iontophoresis, the rats were anesthetized, a portion of abdomen prepped for surgery and an incision was made in the area to expose the intestine. Experiments were conducted using sterile instruments and following good surgical practices. […] Thereafter current (45-50 μA) was allowed to flow for 1.5 minutes followed by 3.5 minutes of recovery time for 1 h, amounting to a total 18 min of iontophoresis. After 1 h, the patches were left in place but the wires were disconnected from the battery and cut close to the inserted patches. The intestinal incisions with the patches left in place were stitched, the intestine put back into the abdomen and the muscle and skin sutured. Blood glucose was determined at the start of the study and at every 0.5 h till the end of study at 3 h. The rats were kept anesthetized until the end of experiment. Afterwards, the animals were euthanized and the intestinal sections in and around the patches were dissected for further histological examination to determine morphological changes, if any, due to iontophoresis.
Control experiments with no electric current were conducted similarly.
About 110 mg of the mixture was pressed at 3-ton pressure using a hydraulic press into a patch. The patches were then cut into 5×3 mm (length×breadth) sized rectangular smaller patches. One side of the patch was completely covered with aluminum foil using minimal amount of super glue placed at one corner of the foil. Wires with a small section of their protective insulation removed were then stuck on the aluminum foil using super glue. Care was taken not to cover the entire wire placed over the foil with super glue. The exposed wire sticking on to the patches were then taped with an electrical insulating tape to prevent any loss of current in vivo through exposed wire.
The circuit for in vivo experiments was set up as illustrated in FIG. 3. Intestinal iontophoresis was carried out using a 6 V battery connected to the intestine. A potentiometer and an ammeter were used in the electrical circuit to accurately control and measure the electric current. Given that the identified safe threshold for iontophoresis is 0.5 mA/cm2, the electrical parameters were selected in order to perform the studies using a safe current density of 0.33 mA/cm2 [8]. For the experiment, the rats were fasted overnight but given free access to water. […]

Caco-2 monolayers = settings: for FITC-insulin transported across the cells: end of 5 h; for Papp of FITC-insulin across the cells: in 5 h
Protocol: (§1) Caco-2 human intestinal epithelial cells (passages #5-10) were cultured in DMEM containing 10% v/v FBS and 1% v/v P/S and seeded in 24 well plate transwells at a density of 2×10^5 cells/ml. 200 μl DMEM with cells was placed in apical side while 600 μl cell free DMEM was placed in the basolateral side. The cells were allowed to grow for a period of 18-21 days and medium replaced with fresh DMEM every other day.
(§2) To maintain sterile conditions, all in vitro experiments including circuit set up were done under aseptic conditions in a biosafety cabinet. A 6 V battery was used to supply electrical current to transwells containing Caco-2 monolayer. The higher potential of the battery was connected to the basolateral side of the transwell while the lower potential of the battery connected to the apical side while taking care not to touch the transwell membranes with Caco-2 cell monolayer. The current applied to the cell was monitored by an ammeter and its value was adjusted to 50 μA using a potentiometer. Three different branches, each attached to an ammeter, potentiometer and transwell were connected in parallel across the battery to enable three different measurements at a time.
Transport experiments were carried out in triplicates and at least 3 transwells were used per trial for each group. Before the start of the experiment, the existing medium in the transwell was replaced with phenol red, FBS and P/S free DMEM in both the apical (200 μl) and basolateral side (600 μl) and the cells were incubated for 30 minutes. […] This was performed at 0.25, 0.5, 1, 2, 3 and 5 h. A 50 μA electrical current was applied to the cells during the first hour of the study for a period of 10 min, followed by 10 min recovery period and this was repeated another two times. At the end of 1 h (total 30 minutes iontophoresis), the transwell plates were kept inside an incubator at 37° C., 5% CO2 and only taken out to remove 100 μl aliquots from the basolateral side followed by replacement with same volume fresh medium at the aforementioned time periods. […] TEER was measured at every time point when aliquots were withdrawn from the transwells. Apparent permeability coefficient (Papp) was calculated using the equation (Brown, et al., “Dermal and transdermal drug delivery systems: current and future prospects,” Drug Deliv. 13(3):175-87 (2006)):
The transport enhancement ratio (ER) was calculated using the equation (Brown, et al., 2006): […]
as §1
as §2, with “the battery was connected to” for “the battery connected to”, “a potentiometer. […]” for “a potentiometer. Three different branches, each attached to an ammeter, potentiometer and transwell were connected in parallel across the battery to enable three different measurements at a time.”

Caco-2 cells [2] = assay: Confocal microscopy of FITC-insulin uptake by Caco-2 cells; format: cell-based, human; settings: cells exposed to electric current compared to control wells
Protocol: On the next day, the transwells were washed with HBSS and the membrane cut out and placed in glass slides. Mounting media with DAPI was added to the membranes and covered with glass slides. Confocal imaging was performed using Olympus Fluoview 1000 Spectral Confocal instrument at 60× magnification.
On the next day, the transwells were washed with HBSS and the membrane cut out and placed in glass slides. Mounting media with DAPI was added to the membranes and covered with glass slides. Confocal imaging was performed using Olympus Fluoview 1000™ Spectral Confocal instrument at 60× magnification.

[3] = control (no current) wells, 2 h
[4] = control (no current) wells, 3 h
[5] = 1 U/kg, subcutaneously injected, 1.5 h
[6] = 1 U/kg, subcutaneously injected, 3 h

Human Insulin
difference in TEER between control and electric current group (Caco-2 cells [1]; at the end at 5 hours): no significant difference
TEER drop of initial levels (Caco-2 cells [1]; electric current, 2 h): 35%
drop in blood glucose levels (non-diabetic rats; 50 U/kg patch in intestine, 45-50 μA current, 3 h): 63%
hypoglycemia (non-diabetic rats; patches with iontophoresis, rats, up to 3 h): severely hypoglycemic

fluorescein isothiocyanate (FITC)-insulin [FITC-insulin]
FITC-insulin transported across the cells (Caco-2 monolayers; control group (no current)): about 5.5 μg
FITC-insulin transported across the cells (Caco-2 monolayers; electric current applied (50 μA)): approximately 14.1 μg
insulin transport across the cells, electric current vs control (Caco-2 monolayers; from 2 hours onwards): significantly higher
Papp of FITC-insulin across the cells (Caco-2 monolayers; without electricity): 9.9 nm/s
Papp of FITC-insulin across the cells (Caco-2 monolayers; without electricity (Example 3)): 9.9 nm/s
TEER reduction of initial levels (Caco-2 cells [1]; [3]): around 9%
TEER, % of initial levels (Caco-2 cells [1]; [3]): 91.2±1.1%
TEER reduction of initial levels (Caco-2 cells [1]; [4]): ~4%
TEER, % of initial levels (Caco-2 cells [1]; [4]): 95.6±6.5%
TEER decrease (Caco-2 cells [1]; control group): no specific decrease
TEER drop of initial levels (Caco-2 cells [1]; electric current, 2 h): 35%
TEER, % of initial levels (Caco-2 cells [1]; electric current, 2 h): 65.7±3.8%
TEER decrease (Caco-2 cells [1]; electric current): 10%
uptake of FITC-insulin by cells (confocal images) (Caco-2 cells [2]): presence of higher FITC-insulin; also recorded: higher uptake
uptake of FITC-insulin by cells (confocal images) (Caco-2 cells [2]; listed as FITCmsulin): higher uptake

insulin solution: insulin solution injected intra-intestinally (50 U/kg) or subcutaneously (1 U/kg) as comparison
blood glucose, % of initial levels (non-diabetic rats; [5]): 57.9±4.1%
maximum drop in blood glucose levels (non-diabetic rats; [5]): 42%
blood glucose drop after recovery (non-diabetic rats; [6]): about 17%
blood glucose, % of initial levels (non-diabetic rats; [6]): 83.3±2.6%
drop in blood glucose levels with time (non-diabetic rats; 50 U/kg, intra-intestinally injected): did not show any drop
